Measurements: patent publication US20030143251A1, “Skin preparations for external use” (priority 2000, published 2003)
Like-named read-outs stand apart in the source and are kept apart here.

Assays:
[1] = Stability (decomposition rate) in acidic, neutral and alkaline aqueous solutions; format: physicochemical
[2] = reported; cited from earlier work
[3] = Maintenance on mouse skin samples (residual rate by HPLC); format: in vitro ADME; conditions: for Maintenance 19 hours after starting incubation: 0.5 g and 2.0 g mouse skin; for Maintenance 19 hours after starting incubation / Residual rate: 0.037M, pH 7.0, 37° C.; for Residual rate: 0.5 g of the skin sample, 40 hours
Method: The back skin was depilated and peeled off after sacrificing mice by cervical dislocation at 24 weeks of age.
Each sample was tested in triplicate (n=3) in all of the 4 groups, and mean residual rates were calculated.
HPLC was conducted under the following conditions:
Solvent: methanol-water (20:80, v/v, adjusted to pH 2.5 using phosphoric acid)

[4] = system: mushroom-derived tyrosinase; conditions: cited from earlier work
[5] = Maintenance in mouse skin extract fluid (residual rate by HPLC); format: in vitro ADME; conditions: skin extract fluid 1:1 with 0.1M solution, pH 7.0, 37° C.
Method: The skin samples obtained in Evaluation example 5 were weighed, and 2.6 g was added to sodium citrate-phosphate buffer solution (5.2 ml, pH 7.0) and homogenized. The homogenate obtained was used as skin extract fluid.
Each sample was tested in triplicate (n=3) in both groups, and mean residual rates were calculated.
HPLC was conducted under the conditions used in Evaluation example 5.

[6] = pH 5.5, aqueous solution, 0.045M, 37° C.
[7] = pH 6.5, aqueous solution, 0.045M, 37° C.
[8] = pH 7.5, aqueous solution, 0.045M, 37° C.

SMILES	half-life at 0.045 M ([1]; aqueous solution, pH 5.5, over pH 5.5 to 7.5, 37° C., read-out: Half-life in alkaline and acidic regions) [h]	half-life at 0.045 M ([1]; aqueous solution, pH 5.5, pH 5.5, aqueous solution, 0.045M, 37° C., α-arbutin determined after 69 hrs, read-out: Half-life (converted)) [h]	half-life at 0.045 M ([1]; aqueous solution, pH 6.5, pH 6.5, aqueous solution, 0.045M, 37° C., read-out: Half-life (converted)) [h]	half-life at 0.045 M ([1]; aqueous solution, pH 7.5, pH 7.5, aqueous solution, 0.045M, 37° C., read-out: Half-life (converted)) [h]	Decomposition rate constant [1, 6]	Decomposition rate constant [1, 7]	Decomposition rate constant [1, 8]	Cytotoxicity, times more cytotoxic than β-arbutin [2]	Maintenance 19 hours after starting incubation [3]	Residual rate [3] [%]	Residual rate, times larger than that of β-arbutin ([3]; 2.0 g of the skin sample, 40 hours after incubation)	Effect on mushroom-derived tyrosinase activity ([4]; Tokkaihei No. 5-932)	Inhibition of mushroom-derived tyrosinase ([4]; Tokkaihei No. 6-153976)	Tyrosinase inhibiting activity ([4]; mushroom-derived tyrosinase, Biochem. Biotech. Biochem., 59, 143 (1995))	half-life at 0.045 M ([1]; buffer, pH 6.5) [h]	half-life at 0.045 M ([1]; buffer, pH 7.5) [h]	Maintenance 4 hours after starting incubation [5]	Residual rate compared with the β-arbutin group ([5]; 20 hours)
Oc1ccc(O)cc1 [Hydroquinone, hydroquinone]	0.6 to 10.8	10.8	0.8	0.6	0.064	0.903	1.117	about 400 times	–	–	–	–	–	–	–	–	–	–
OCC1OC(Oc2ccc(O)cc2)C(O)C(O)C1O [α-Arbutin, hydroquinone-α-D-glucopyranoside]	–	–	–	–	0	0.013	0.022	–	remained virtually intact	87.5	about 10 times	promotes, rather than inhibits	effective in inhibiting mushroom-derived tyrosinase	does not show tyrosinase inhibiting activity	53.3	31.5	remained virtually intact	more than twice higher
OC[C@H]1O[C@@H](Oc2ccc(O)cc2)[C@H](O)[C@@H](O)[C@@H]1O [β-Arbutin, hydroquinone-β-glucopyranoside, reference compound]	–	–	–	–	–	–	–	–	remained virtually intact	0	–	–	–	–	–	–	remained virtually intact	–
